“Also recorded” adds a separate entry of the source.
Key:
[1] = tested on: Rat; experiment: MES (Rat); assay type: in vivo
[2] = tested on: male Sprague Dawley rats; experiment: Taxol-induced peripheral neuropathy (rat), mechanical allodynia (von Frey); assay type: in vivo; conditions: for Pain relief as measured by mechanical allodynia: rat, IP, Day 32, 75 mg/kg (NTP-2014, NTP-2026)
Excerpt: In this study, an animal model of Taxol-induced sensory neuropathy was employed to evaluate the effects of the sponsor's test compounds, for response to tactile sensitivity using von Frey test of mechanical allodynia. […] Therefore, Taxol-induced mechanical allodynia was employed as the measured behavioral endpoint.
The test substance was homogenized and dispersed using a mortar and a pestle in 0.2% hydroxypropylmethylcellulose (HPMC) in physiological saline, which served as the vehicle. Test articles were administered intraperitoneally in dose volumes of 10 mL/kg body weight. Preparations were made freshly for each day of administration.
Prior to test article NTP-2024 and vehicle control group administration, rats were pretreated at 30 minutes and again at 10 minutes prior to test article administration with a general metabolic inhibitor, piperonyl butoxide (150 mg/kg i.p.) in DMSO, at a volume of 1 mL/kg.
The reference article, Gabapentin, was formulated in saline to a concentration of 100 mg/mL and delivered […] at a dose volume of 1 mL/kg body weight (for a dosing concentration of 100 mg/kg).
All animals were administered Taxol, 2 mg/kg, IP at a dose volume of 1 mL/kg, on Days 1, 3, 5 and 7.
On Day 32, all animals received a single intraperitoneal injection of test article or vehicle according to Tables 1 and 2. For group 1 (vehicle), rats were pre-treated with Piperonyl butoxide (150 mg/kg IP, dose volume of 1 mL/kg) at 30 minutes and again at 10 minutes prior to vehicle administration. Four animals in group 3 (NTP-2024) were also pre-treated with Piperonyl butoxide (150 mg/kg IP, dose volume of 1 mL/kg) at 30 minutes and again at 10 minutes prior to vehicle administration. Animals in Groups 2, 3, 4, & 5 were pre-treated with Saline (dose volume of 1 mL/kg, IP) at 30 minutes and again at 10 minutes prior to test article administration. With the exception of animals in group 2, the animals received an IP injection of vehicle or test article 30 min prior to mechanical allodynia testing. Animals were dosed at a volume of 10 mL/kg.
Animals in group 2, received an IP injection of Gabapentin 90 minutes prior to mechanical allodynia testing. Animals were dosed at a volume of 1 mL/kg.
All animals underwent von Frey testing for mechanical allodynia. On testing days, the animals were returned to the chambers and allowed approximately 15 minutes to explore their surroundings prior to testing. A series of filaments were applied to the left hind paw. A 2.0 g filament was first applied to the plantar surface, if the animal responded to the filament (by lifting its paw) then the next smaller filament was applied. […] This is repeated in an “Up down” method for four responses after the first initial change in response.
The original study design used thermal hyperalgesia as the main parameter for testing the ability of the test compounds to ameliorate the pain associated with the Taxol injection. The treatment inclusion was set at a 20% drop from baseline values as determined on Day 28. […] The study design was amended to use mechanical allodynia as the testing parameter. […] This changed the testing days from Day 28 to Day 31 for allodynia confirmation and Day 29 to Day 32 for testing the article efficacy. Additional animals were received to complete the group size designation. These animals were tested for mechanical allodynia only. The study was then further amended to remove the piperonyl butoxide as a pre-treatment for Group 3 (NTP-2024). […] Because this study was conducted in two portions, four (4) animals from Group 3 received the metabolic inhibitor and five (5) received Saline as a pre-treatment.
The group mean results were analyzed versus the vehicle control group using a two way ANOVA, followed by a Bonferroni post-hoc test. Individual groups were tested pre and post dose using a paired t-test.

[3] = tested on: Mice; experiment: 6 Hz (Mice); assay type: in vivo
[4] = tested on: adult mice (C57/B16); experiment: Mesial temporal lobe epilepsy model (mice), hippocampal discharges; assay type: in vivo, mouse; conditions: for Cumulative duration of hippocampal discharges / Number of hippocampal discharges: 50 mg/kg for NTP-2014 and NTP-2026, 150 mg/kg for NTP-2024, NTP-2006, NTP-1007, NTP-1003; for Suppression of discharges through 80 minutes post-dose: 25 and 50 mg/kg (NTP-2014), 50 mg/kg (NTP-2026); for Significant decrease in cumulative duration of and total number of hippocampal discharges: dose-response study, mice
Method: Antiepileptic protocol: Up to eight adult mice (C57/B16) are injected with kainate (1 nmol in 50 nl) and are implanted with a bipolar electrode in the dorsal hippocampus using stereotaxic techniques under general anesthesia. […] Drug conditions are counter-balanced, the animals being used as their own controls. Digital EEG recordings are performed in freely moving animals for 20 min pre-injection and 80 min post-injection. The effects of the injected compound are compared versus vehicle injections and reference period (pre-dose). Upon completion of the experiment, standard histological analysis are performed to verify electrode location, cell losses in CA1, CA3 and hilus, as well as dentate gyrus dispersion. Only animals with all characteristics of MTLE are used in data analysis. […] The results below are normalized to the pre-dose condition for each of the treatment group including DMSO and saline vehicle controls. Doses of test article compounds were 50 mg/kg for NTP-2014 and NTP-2026 and 150 mg/kg for NTP-2024, NTP-2006, NTP-1007, and NTP-1003. Therefore the bumetanide, furosemide, piretanide, azosemide, and torsemide esters and amide analogs described herein may be used in therapeutic methods to treat seizures.

[5] = tested on: Rat; experiment: Exploratory Bennett neuropathic pain (rat), plus inhibitor; assay type: in vivo
[6] = doses up to 200 mg/kg, no metabolic inhibitor coadministered

Structure (SMILES) | Activity in MES [1, 6] | Activity compared to GBP at 100 mg/kg ([2]; 75 mg/kg) | Pain relief as measured by mechanical allodynia ([2]; 75 mg/kg) | Toxicity in 6 Hz study ([3]; 100 mg/kg) | Suppression / activity in 6 Hz ([3]; 100 mg/kg, NTP-2014: all animals to 1 h, majority through 4 h, NTP-2026: 2 timepoints (2 hr, 4 hr)) | Significant adverse events ([1]; 100 mg/kg) | Toxic effects ([1]; 300 mg/kg) | Rats with complete suppression ([1]; at 4 hr, 100 mg/kg) | Cumulative duration of hippocampal discharges [4] | Number of hippocampal discharges [4] | Suppression of discharges through 80 minutes post-dose [4] | Significant decrease in cumulative duration of and total number of hippocampal discharges [4] | Activity against tactile allodynia [5] | Mean allodynia score ([2]; metabolic inhibitor pre-treatment removed) | Mean allodynia score ([2]; pre-treated with the metabolic inhibitor (PBx)) | Activity in 6 Hz [3, 6] | Animals with complete reversal of allodynia ([2]; group of nine rats) | Activity in MES ([1]; 30, 100, 330 mg/kg)
CCCCNc1cc(C(=O)O)cc(S(N)(=O)=O)c1Oc1ccccc1 [Bumetanide, reference compound] | No activity at doses up |  |  |  |  |  |  |  |  |  |  |  |  |  |  |  |  | 
CCCCN(CCCC)c1cc(C(=O)O)cc(S(N)(=O)=O)c1Oc1ccccc1 [NTP-2014, 3-Aminosulfonyl-5-N,N-dibutylamino-4-phenoxybenzoic acid] |  | mechanical allodynia-equal to if not better activity | significant improvement in allodynia; also recorded: significant treatment effect; also recorded: effective analgesic effects | mg/kg. No toxicity. | Complete | seen at 300 mg/kg. No | mg/kg. Toxic effects | at 4 hr in 2/3 rats at 100 | decreased | decreased | 25 and 50 mg/kg, near complete | Dose-response relationship | Significant effects against tactile allodynia |  |  |  |  | 
CCCCNc1cc(C(=O)NN2CCOCC2)cc(S(N)(=O)=O)c1Oc1ccccc1 [NTP-2024, N-Morpholinyl 3-Aminosulfonyl-5-N-butylamino-4-phenoxybenzamide] |  |  |  |  |  |  |  |  | decreased | decreased |  | Dose-response relationship | Dose-related activity against tactile | 8.04 g | 14.92 g | No activity at doses |  | 
CCCCNc1cc(C(=O)N(C)CCCN(C)C)cc(S(N)(=O)=O)c1Oc1ccccc1 [NTP-2026, N-(3-(Dimethylamino)propyl)-N-methyl 3-Aminosulfonyl-5-N-butylamino-4-phenoxybenzamide] |  |  | slight improvement; also recorded: Several animals demonstrated complete responses | No toxicity. |  |  |  |  | decreased | decreased | 50 mg/kg, near complete suppression of | Dose-response relationship | Very low doses tested, no significant |  |  |  | Three of the nine animals | No activity at 30, 100,
